# Reference: patent publication US10947196B2, “Beta adrenergic agonist and methods of using the same” (CURASEN THERAPEUTICS, INC., priority 2019, dated 2021)
# Where two headings read alike, the source gives them in different places.
# Legend:
# [1] = molecular target: β2 adrenergic receptor (Homo sapiens (Human), UniProt P07550); assay: cAMP Gs dynamic HTRF assay, β2 expressing CHO cells; assay type: cell-based; details: B2-AR
# Protocol: (§1) cAMP homogeneous time-resolved fluorescence (HTRF). Compound efficacy was determined using the cAMP Gs dynamic HTRF assay (Cisbio, catalog #62AM4PEC) largely following the manufacturer's instructions, also detailed below.
# (§2) Compound preparation. […] Standard serial dilution curves were 10-point, 5-fold dilutions starting from a highest concentration of 10 μM. […] Assay plates were centrifuged at 500×g for 10 seconds. Compounds and IBMX were prepared at 2× final dose to compensate for addition of cells.
# (§3) Cell preparation. 1× stimulation buffer, washing PBS (Dulbecco's phosphate-buffered saline, −Mg −Ca; Caisson Labs, catalog #PBL01), assay PBS (Dulbecco's phosphate-buffered saline, +Mg, +Ca; Caisson Labs, catalog #PBL02) and Versene (0.02% EDTA disodium salt solution in PBS without calcium or magnesium; Caisson Labs, catalog #EDL01) were pre-warmed to 37° C. Cells expressing beta-adrenergic receptor were washed in washing PBS to remove growth medium and then released from the surface by incubating with Versene for 5-10 minutes at 37° C. Cells were harvested using assay PBS, counted manually by hemocytometer or by an automated cell counter, pelleted by centrifugation (200×g, 5 minutes) and resuspended in 37° C. 1× stimulation buffer to a final density of 1.5×10^6 cells/mL. 5 μL of the suspended cell solution (7500 cell total) were added to all wells of the 384 well assay plate, the assay plate was covered with an Axygen® plate seal (Corning PCR-SP) and incubated in a humidified 37° C. environment supplemented with 5% CO2 for 30 minutes.
# (§4) HTRF reagent addition, reading and data analysis. After 30 minutes of cell stimulation with test compound, the assay plates were centrifuged at 500×g for 10 seconds, and incubation was stopped with the addition of 5 μL cAMP-D2 acceptor, diluted 1:21 in detection and lysis buffer 2 (Cisbio 62CL2FDF) was added to all cells. Subsequently, 5 μL Anti-cAMP-Eu Donor, diluted 1:21 in detection and lysis buffer 2, was added to cells. Plates were sealed and reactions gently ‘vortexed’ at 900 rpm on a Heidolph Titramax 1000 for at least 30 minutes at room temperature. Plates were centrifuged again at 500×g for 10 seconds, and HTRF was measured using a Tecan Spark plate reader at 50 flashes per well. […] Potency estimates (EC50) were derived from the four-parameter nonlinear regression of the concentration-effect curve and an estimate of relative efficacy was determined by comparing the magnitude of the test compound HTRF signal window (min−max dose) with the signal window of the full agonist control, isoproterenol.
# [2] = molecular target: β1-adrenergic receptor (Homo sapiens (Human), UniProt P08588); assay: cAMP Gs dynamic HTRF assay, β1 expressing CHO cells; assay type: cell-based; details: B1-AR
# Protocol: as §1, §2, §3, §4
# [3] = CHO-K1 (HitHunter), read-out: Average pEC50 [Receptor subtype: B2-AR, Cell type: CHO-K1 (HitHunter)] (converted)
# [4] = CHO-K cells, read-out: Average EC50 [Receptor subtype: B2-AR, Cell type: CHO-K]
# [5] = CHO-K1 (HitHunter), read-out: Average pEC50 [Receptor subtype: B1-AR, Cell type: CHO-K1 (HitHunter)] (converted)
# [6] = CHO-K cells, read-out: Average EC50 [Receptor subtype: B1-AR, Cell type: CHO-K]
# Chain of β1-adrenergic receptor (P08588 whole entry, species assumed): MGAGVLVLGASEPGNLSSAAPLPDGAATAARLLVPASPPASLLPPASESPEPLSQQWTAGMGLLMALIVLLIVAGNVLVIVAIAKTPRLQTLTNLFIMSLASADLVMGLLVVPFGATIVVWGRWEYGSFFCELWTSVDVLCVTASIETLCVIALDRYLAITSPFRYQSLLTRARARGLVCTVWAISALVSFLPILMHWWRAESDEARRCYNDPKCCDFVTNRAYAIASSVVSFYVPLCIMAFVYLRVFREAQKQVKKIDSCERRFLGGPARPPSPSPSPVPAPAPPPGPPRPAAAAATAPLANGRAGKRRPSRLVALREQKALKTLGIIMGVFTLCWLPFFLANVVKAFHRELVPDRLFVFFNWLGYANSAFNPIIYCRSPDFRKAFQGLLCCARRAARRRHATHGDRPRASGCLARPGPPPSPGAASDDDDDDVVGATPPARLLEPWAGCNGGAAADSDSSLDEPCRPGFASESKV
# Chain of β2 adrenergic receptor (P07550 whole entry, species assumed): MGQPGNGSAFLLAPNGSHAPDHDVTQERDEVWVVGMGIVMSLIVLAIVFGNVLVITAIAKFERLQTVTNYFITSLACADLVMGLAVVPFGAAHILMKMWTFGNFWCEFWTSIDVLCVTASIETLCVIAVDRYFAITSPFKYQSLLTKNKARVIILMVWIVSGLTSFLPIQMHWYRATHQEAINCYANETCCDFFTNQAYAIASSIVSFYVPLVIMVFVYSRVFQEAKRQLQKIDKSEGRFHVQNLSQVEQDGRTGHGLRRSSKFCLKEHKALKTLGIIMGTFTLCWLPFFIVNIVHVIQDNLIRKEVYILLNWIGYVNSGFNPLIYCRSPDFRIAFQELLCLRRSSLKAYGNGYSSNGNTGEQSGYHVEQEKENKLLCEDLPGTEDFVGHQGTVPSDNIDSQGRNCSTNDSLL
smiles,measurement,setting,value
CC(C)(C)NC[C@H](O)c1cccc(-c2ccccc2)n1 [Compound 03-28],EC50,[1]; [3],< 10 nM
same,EC50,[1]; [4],< 10 nM
same,EC50,[2]; [5],10 to 100 nM
same,EC50,[2]; [6],10 to 100 nM
CC(C)(C)NC[C@H](O)c1ccc(C#N)c(C(F)(F)F)n1 [Compound 03-30],EC50,[1]; [3],10 to 100 nM
same,EC50,[1]; [4],10 to 100 nM
same,EC50,[2]; [5],100 to 1000 nM
same,EC50,[2]; [6],100 to 1000 nM
CC(C)(C)NC[C@H](O)c1cccc(Br)n1 [Compound 03-32],EC50,[1]; [3],10 to 100 nM
same,EC50,[1]; [4],10 to 100 nM
same,EC50,[2]; [5],< 10 nM
same,EC50,[2]; [6],< 10 nM
O[C@H](CNC1CCC1)c1cccc(C(F)(F)F)n1 [Compound 03-34],EC50,[1]; [3],> 1000 nM
same,EC50,[1]; [4],> 1000 nM
same,Average pEC50 [Receptor subtype: B1-AR; Cell type: CHO-K1 (HitHunter)],[2]; CHO-K1 (HitHunter),D (D < 6)
same,EC50,[2]; [6],> 1000 nM
CC(C)NC[C@@H](O)c1cccc(C(F)(F)F)n1 [Compound 03-36],EC50,[1]; [3],> 1000 nM
same,EC50,[1]; [4],> 1000 nM
same,EC50,[2]; [5],> 1000 nM
same,EC50,[2]; [6],> 1000 nM
CC(C)(C)NC[C@@H](O)c1cccc(C(F)(F)F)n1 [Compound 03-43],EC50,[1]; [3],100 to 1000 nM
same,EC50,[1]; [4],> 1000 nM
same,EC50,[2]; [5],> 1000 nM
same,EC50,[2]; [6],> 1000 nM
Cc1cccc([C@H](O)CNC(C)(C)C)n1 [Compound 03-47],EC50,[1]; [3],> 1000 nM
same,EC50,[1]; [4],> 1000 nM
same,EC50,[2]; [5],> 1000 nM
same,EC50,[2]; [6],> 1000 nM
"CC(C)(C)NC[C@@H](O)c1cccc(C#N)n1 [Compound 03-48, (R)-6-(2-(tert-butylamino)-1-hydroxyethyl)picolinonitrile]",Average pEC50 [Receptor subtype: B2-AR; Cell type: CHO-K1 (HitHunter)],[1]; CHO-K1 (HitHunter),C-D
same,EC50,[1]; [4],> 1000 nM
same,Average pEC50 [Receptor subtype: B1-AR; Cell type: CHO-K1 (HitHunter)],[2]; CHO-K1 (HitHunter),D (D < 6)
same,EC50,[2]; [6],> 1000 nM
CC(C)c1ncccc1[C@@H](O)CNC(C)(C)C [Compound 03-51],EC50,[1]; [3],> 1000 nM
same,EC50,[1]; [4],> 1000 nM
same,Average pEC50 [Receptor subtype: B1-AR; Cell type: CHO-K1 (HitHunter)],[2]; CHO-K1 (HitHunter),D (D < 6)
same,EC50,[2]; [6],> 1000 nM
CC(C)(C)NC[C@H](O)c1cccnc1N1CCCC1 [Compound 03-60],EC50,[1]; [3],> 1000 nM
same,EC50,[1]; [4],> 1000 nM
same,Average pEC50 [Receptor subtype: B1-AR; Cell type: CHO-K1 (HitHunter)],[2]; CHO-K1 (HitHunter),D (D < 6)
same,EC50,[2]; [6],> 1000 nM
Cc1ccc([C@@H](O)CNC(C)(C)C)c(C2CCCC2)n1 [Compound 03-65],EC50,[1]; [3],10 to 100 nM
same,EC50,[2]; [5],> 1000 nM
CC(C)(C)NC[C@H](O)c1cccnc1C1CCC1 [Compound 03-68],EC50,[1]; [3],10 to 100 nM
same,EC50,[2]; [5],100 to 1000 nM
CC(C)(C)NC[C@H](O)c1cccnc1-n1nccn1 [Compound 03-74],EC50,[1]; [3],> 1000 nM
same,EC50,[2]; [5],> 1000 nM
C#Cc1ncccc1[C@@H](O)CNC(C)(C)C [Compound 03-75],EC50,[1]; [3],> 1000 nM
same,EC50,[2]; [5],> 1000 nM
CC(C)(C)NC[C@H](O)c1cccnc1-c1c[nH]nn1 [Compound 03-76],EC50,[1]; [3],100 to 1000 nM
same,EC50,[2]; [5],100 to 1000 nM
CC(C)(C)NC[C@H](O)c1cccnc1C(C)(F)F [Compound 03-83],EC50,[1]; [3],100 to 1000 nM
same,EC50,[2]; [5],> 1000 nM
CNC(=O)c1cccc([C@@H](O)CNC(C)(C)C)n1 [Compound 03-85],EC50,[1]; [3],100 to 1000 nM
same,EC50,[2]; [5],> 1000 nM
CC(C)(C)NC[C@H](O)c1cccc(C2=NCCN2)n1 [Compound 03-86],EC50,[1]; [3],100 to 1000 nM
same,EC50,[2]; [5],> 1000 nM
Cc1ccc([C@@H](O)CNC(C)(C)C)c(C2=CCCC2)n1 [Compound 03-90],EC50,[1]; [3],> 1000 nM
same,EC50,[2]; [5],> 1000 nM
CC(C)(C)NC[C@H](O)c1cc(C(F)(F)F)cnc1C1=CCCC1 [Compound 03-92],EC50,[1]; [3],> 1000 nM
same,EC50,[2]; [5],> 1000 nM
CC(C)(C)NC[C@H](O)c1cccc(N)n1 [Compound 03-98],EC50,[1]; [3],> 1000 nM
same,EC50,[2]; [5],> 1000 nM
Cc1cc([C@H](O)CNC(C)(C)C)ccn1 [Compound 03-109],EC50,[1]; [3],100 to 1000 nM
same,EC50,[2]; [5],100 to 1000 nM
CC(C)(C)NC[C@H](O)c1ccnc(C#N)c1 [Compound 03-110],EC50,[1]; [3],> 1000 nM
same,EC50,[2]; [5],> 1000 nM
CC(C)(C)NCC(O)c1cccnc1Cl (stereo not shown) [Compound 03-114],EC50,[1]; [3],10 to 100 nM
same,EC50,[1]; [4],10 to 100 nM
same,EC50,[2]; [5],100 to 1000 nM
same,EC50,[2]; [6],100 to 1000 nM
CC(C)(C)NC[C@@H](O)c1cccc(C2CCOCC2)n1 [Compound 03-122],EC50,[1]; [3],100 to 1000 nM
same,EC50,[1]; [4],100 to 1000 nM
same,EC50,[2]; [5],> 1000 nM
same,EC50,[2]; [6],> 1000 nM
CC(C)(C)NC[C@@H](O)c1cccc(-n2cccc2)n1 [Compound 03-124],EC50,[1]; [3],10 to 100 nM
same,EC50,[1]; [4],10 to 100 nM
same,Average pEC50 [Receptor subtype: B1-AR; Cell type: CHO-K1 (HitHunter)],[2]; CHO-K1 (HitHunter),C (C = <7-6)
same,EC50,[2]; [6],100 to 1000 nM
CC(C)(C)NC[C@@H](O)c1ccc(C(F)(F)F)cn1 [Compound 03-125],EC50,[1]; [3],100 to 1000 nM
same,EC50,[1]; [4],100 to 1000 nM
same,EC50,[2]; [5],100 to 1000 nM
same,EC50,[2]; [6],100 to 1000 nM
Cc1ccc([C@H](O)CNC(C)(C)C)nc1 [Compound 03-128],EC50,[1]; [3],> 1000 nM
same,EC50,[1]; [4],> 1000 nM
same,EC50,[2]; [5],> 1000 nM
same,EC50,[2]; [6],> 1000 nM
CC(C)(C)NC[C@H](O)c1cccc(-c2cccc(Cl)c2)n1 [Compound 03-129],EC50,[1]; [3],< 10 nM
same,EC50,[1]; [4],< 10 nM
same,Average pEC50 [Receptor subtype: B1-AR; Cell type: CHO-K1 (HitHunter)],[2]; CHO-K1 (HitHunter),B (B = 8-7)
same,EC50,[2]; [6],10 to 100 nM
CC(C)(C)NC[C@@H](O)c1cccc(-c2cccc(Cl)c2)n1 [Compound 03-130],EC50,[1]; [3],10 to 100 nM
same,EC50,[1]; [4],10 to 100 nM
same,Average pEC50 [Receptor subtype: B1-AR; Cell type: CHO-K1 (HitHunter)],[2]; CHO-K1 (HitHunter),C (C = <7-6)
same,EC50,[2]; [6],100 to 1000 nM
CC(C)(C)NC[C@H](O)c1cccc(-c2cccc(F)c2)n1 [Compound 03-131],EC50,[1]; [3],< 10 nM
same,EC50,[1]; [4],< 10 nM
same,Average pEC50 [Receptor subtype: B1-AR; Cell type: CHO-K1 (HitHunter)],[2]; CHO-K1 (HitHunter),B (B = 8-7)
same,EC50,[2]; [6],10 to 100 nM
CC(C)(C)NC[C@H](O)c1cccc(-c2ccccc2Cl)n1 [Compound 03-133],EC50,[1]; [3],< 10 nM
same,EC50,[1]; [4],< 10 nM
same,Average pEC50 [Receptor subtype: B1-AR; Cell type: CHO-K1 (HitHunter)],[2]; CHO-K1 (HitHunter),C (C = <7-6)
same,EC50,[2]; [6],100 to 1000 nM
CC(C)(C)NC[C@H](O)c1cccc(N2CC3CCCC3C2)n1 (stereo partly shown) [Compound 03-135],EC50,[1]; [3],< 10 nM
same,EC50,[1]; [4],< 10 nM
same,Average pEC50 [Receptor subtype: B1-AR; Cell type: CHO-K1 (HitHunter)],[2]; CHO-K1 (HitHunter),C (C = <7-6)
same,EC50,[2]; [6],100 to 1000 nM
CC(C)(C)NC[C@H](O)c1cccc(N2CCCCC2)n1 [Compound 03-137],EC50,[1]; [3],< 10 nM
same,EC50,[1]; [4],< 10 nM
same,EC50,[2]; [5],100 to 1000 nM
same,EC50,[2]; [6],100 to 1000 nM
Cc1ccc(-c2cccc([C@@H](O)CNC(C)(C)C)n2)cc1 [Compound 03-143],EC50,[1]; [3],100 to 1000 nM
same,EC50,[2]; [5],> 1000 nM
same,EC50,[2]; [6],> 1000 nM
CC(C)(C)NC[C@H](O)c1cccc(-c2ccc(F)cc2)n1 [Compound 03-145],EC50,[1]; [3],< 10 nM
same,EC50,[1]; [4],< 10 nM
same,EC50,[2]; [5],10 to 100 nM
same,EC50,[2]; [6],10 to 100 nM
Cc1cccc(-c2cccc([C@@H](O)CNC(C)(C)C)n2)c1 [Compound 03-147],EC50,[1]; [3],< 10 nM
same,EC50,[1]; [4],< 10 nM
same,EC50,[2]; [5],10 to 100 nM
same,EC50,[2]; [6],10 to 100 nM
